Numbers after ± are expanded uncertainties.
Tests used:
[1] = 101 kPa, Liquid
[2] = xn = mol fraction of the nth substance listed; details: 101 kPa, Liquid

In the case of `CCCCCc1ccc(C2CCC(CCC)CC2)cc1` (stereo not drawn) [1-pentyl-4-(4-propylcyclohexyl)-benzene], the viscosity ([1]; 278.15 K) is reported as 27.74 ± 0.39 mPa·s, the viscosity ([1]; 284.15 K) is reported as 21.48 ± 0.31 mPa·s and the viscosity ([1]; 290.15 K) is reported as 16.95 ± 0.24 mPa·s. The viscosity ([1]; 296.15 K) was 13.5 ± 0.19 mPa·s, the viscosity ([1]; 302.15 K) was 11.09 ± 0.15 mPa·s and the viscosity ([1]; 308.15 K) was 9.21 ± 0.13 mPa·s. For the same compound, the viscosity ([1]; 314.15 K) was 7.64 ± 0.1 mPa·s, the viscosity ([1]; 320.15 K) was 6.58 ± 0.09 mPa·s and the viscosity ([1]; 325.15 K) was 6.01 ± 0.08 mPa·s. It also gave a viscosity ([1]; 330.15 K) of 5.19 ± 0.07 mPa·s, a viscosity ([1]; 335.15 K) of 4.57 ± 0.06 mPa·s and a viscosity ([1]; 340.15 K) of 4.13 ± 0.06 mPa·s. The viscosity ([1]; 345.15 K) was 3.68 ± 0.05 mPa·s and the viscosity ([1]; 350.15 K) was 3.29 ± 0.05 mPa·s.

`Cc1c(C)c2c(c(C)c1O)CCC(C)(CCCC(C)CCCC(C)CCCC(C)C)O2` (stereo not drawn) [dl-α-tocopherol] + CCCCCc1ccc(C2CCC(CCC)CC2)cc1 gave a viscosity ([2]; 278.15 K, x1 = 1) of 37128 ± 10000 mPa·s, a viscosity ([2]; 284.15 K, x1 = 1) of 15242 ± 3600 mPa·s and a viscosity ([2]; 290.15 K, x1 = 1) of 6380 ± 1300 mPa·s. It also gave a viscosity ([2]; 296.15 K, x1 = 1) of 3017.5 ± 510 mPa·s, a viscosity ([2]; 302.15 K, x1 = 1) of 1531 ± 220 mPa·s and a viscosity ([2]; 308.15 K, x1 = 1) of 814.81 ± 94 mPa·s. For the same compound, the viscosity ([2]; 314.15 K, x1 = 1) was 454.58 ± 42 mPa·s, the viscosity ([2]; 320.15 K, x1 = 1) was 283.56 ± 21 mPa·s and the viscosity ([2]; 325.15 K, x1 = 1) was 187.51 ± 11 mPa·s. The viscosity ([2]; 330.15 K, x1 = 1) was 129.2 ± 5.7 mPa·s, the viscosity ([2]; 335.15 K, x1 = 1) was 92.65 ± 3 mPa·s and the viscosity ([2]; 340.15 K, x1 = 1) was 67.32 ± 1.6 mPa·s. It also gave a viscosity ([2]; 345.15 K, x1 = 1) of 49.98 ± 1.1 mPa·s and a viscosity ([2]; 350.15 K, x1 = 1) of 37.4 ± 0.85 mPa·s.

In the case of `Cc1c(C)c2c(c(C)c1O)CCC(C)(CCCC(C)CCCC(C)CCCC(C)C)O2` (stereo not drawn) [dl-α-tocopherol] + Cc1cc(C)cc(C)c1, the viscosity ([2]; 278.15 K, x1 = 0.2025) is reported as 6.85 ± 1.6 mPa·s, the viscosity ([2]; 278.15 K, x1 = 0.4036) is reported as 148.08 ± 15 mPa·s and the viscosity ([2]; 278.15 K, x1 = 0.5972) is reported as 1253.6 ± 170 mPa·s. For the same compound, the viscosity ([2]; 278.15 K, x1 = 0.7955) was 5944.7 ± 1200 mPa·s, the viscosity ([2]; 278.15 K, x1 = 1) was 37128 ± 10000 mPa·s and the viscosity ([2]; 284.15 K, x1 = 0.2025) was 5.55 ± 0.11 mPa·s. For the same compound, the viscosity ([2]; 284.15 K, x1 = 0.4036) was 92.32 ± 3.1 mPa·s, the viscosity ([2]; 284.15 K, x1 = 0.5972) was 658.51 ± 71 mPa·s and the viscosity ([2]; 284.15 K, x1 = 0.7955) was 3037.6 ± 510 mPa·s. It also gave a viscosity ([2]; 284.15 K, x1 = 1) of 15242 ± 3600 mPa·s, a viscosity ([2]; 290.15 K, x1 = 0.2025) of 4.6 ± 0.08 mPa·s and a viscosity ([2]; 290.15 K, x1 = 0.4036) of 56.98 ± 1.3 mPa·s. It also gave a viscosity ([2]; 290.15 K, x1 = 0.5972) of 357.26 ± 30 mPa·s, a viscosity ([2]; 290.15 K, x1 = 0.7955) of 1533.2 ± 220 mPa·s and a viscosity ([2]; 290.15 K, x1 = 1) of 6380.1 ± 1300 mPa·s. It also gave a viscosity ([2]; 296.15 K, x1 = 0.2025) of 3.88 ± 0.07 mPa·s, a viscosity ([2]; 296.15 K, x1 = 0.4036) of 38 ± 0.82 mPa·s and a viscosity ([2]; 296.15 K, x1 = 0.5972) of 210.82 ± 13 mPa·s. For the same compound, the viscosity ([2]; 296.15 K, x1 = 0.7955) was 819.67 ± 95 mPa·s, the viscosity ([2]; 296.15 K, x1 = 1) was 3017.5 ± 510 mPa·s and the viscosity ([2]; 302.15 K, x1 = 0.2025) was 3.24 ± 0.06 mPa·s. The viscosity ([2]; 302.15 K, x1 = 0.4036) was 26.65 ± 0.55 mPa·s, the viscosity ([2]; 302.15 K, x1 = 0.5972) was 130.99 ± 5.8 mPa·s and the viscosity ([2]; 302.15 K, x1 = 0.7955) was 477.36 ± 45 mPa·s. For the same compound, the viscosity ([2]; 302.15 K, x1 = 1) was 1531 ± 220 mPa·s, the viscosity ([2]; 308.15 K, x1 = 0.2025) was 2.94 ± 0.05 mPa·s and the viscosity ([2]; 308.15 K, x1 = 0.4036) was 19.06 ± 0.38 mPa·s. The viscosity ([2]; 308.15 K, x1 = 0.5972) was 83.96 ± 2.4 mPa·s, the viscosity ([2]; 308.15 K, x1 = 0.7955) was 276.12 ± 20 mPa·s and the viscosity ([2]; 308.15 K, x1 = 1) was 814.81 ± 94 mPa·s. It also gave a viscosity ([2]; 314.15 K, x1 = 0.2025) of 2.39 ± 0.04 mPa·s, a viscosity ([2]; 314.15 K, x1 = 0.4036) of 14.43 ± 0.27 mPa·s and a viscosity ([2]; 314.15 K, x1 = 0.5972) of 55.52 ± 1.1 mPa·s. For the same compound, the viscosity ([2]; 314.15 K, x1 = 0.7955) was 173.98 ± 9.5 mPa·s, the viscosity ([2]; 314.15 K, x1 = 1) was 454.58 ± 42 mPa·s and the viscosity ([2]; 320.15 K, x1 = 0.2025) was 2.14 ± 0.04 mPa·s. It also gave a viscosity ([2]; 320.15 K, x1 = 0.4036) of 11.42 ± 0.21 mPa·s, a viscosity ([2]; 320.15 K, x1 = 0.5972) of 40.57 ± 0.81 mPa·s and a viscosity ([2]; 320.15 K, x1 = 0.7955) of 116 ± 4.6 mPa·s. For the same compound, the viscosity ([2]; 320.15 K, x1 = 1) was 283.56 ± 21 mPa·s, the viscosity ([2]; 325.15 K, x1 = 0.2025) was 1.96 ± 0.04 mPa·s and the viscosity ([2]; 325.15 K, x1 = 0.4036) was 9.28 ± 0.17 mPa·s. For the same compound, the viscosity ([2]; 325.15 K, x1 = 0.5972) was 30.55 ± 0.62 mPa·s, the viscosity ([2]; 325.15 K, x1 = 0.7955) was 82.01 ± 2.3 mPa·s and the viscosity ([2]; 325.15 K, x1 = 1) was 187.51 ± 11 mPa·s. The viscosity ([2]; 330.15 K, x1 = 0.2025) was 1.83 ± 0.03 mPa·s, the viscosity ([2]; 330.15 K, x1 = 0.4036) was 7.75 ± 0.14 mPa·s and the viscosity ([2]; 330.15 K, x1 = 0.5972) was 23.73 ± 0.46 mPa·s. The viscosity ([2]; 330.15 K, x1 = 0.7955) was 60.1 ± 1.2 mPa·s, the viscosity ([2]; 330.15 K, x1 = 1) was 129.2 ± 5.7 mPa·s and the viscosity ([2]; 335.15 K, x1 = 0.2025) was 1.72 ± 0.03 mPa·s. For the same compound, the viscosity ([2]; 335.15 K, x1 = 0.4036) was 6.56 ± 0.12 mPa·s, the viscosity ([2]; 335.15 K, x1 = 0.5972) was 18.89 ± 0.36 mPa·s and the viscosity ([2]; 335.15 K, x1 = 0.7955) was 45.63 ± 0.95 mPa·s. It also gave a viscosity ([2]; 335.15 K, x1 = 1) of 92.65 ± 3 mPa·s, a viscosity ([2]; 340.15 K, x1 = 0.2025) of 1.65 ± 0.03 mPa·s and a viscosity ([2]; 340.15 K, x1 = 0.4036) of 5.59 ± 0.1 mPa·s. The viscosity ([2]; 340.15 K, x1 = 0.5972) was 15.33 ± 0.29 mPa·s, the viscosity ([2]; 340.15 K, x1 = 0.7955) was 34.46 ± 0.72 mPa·s and the viscosity ([2]; 340.15 K, x1 = 1) was 67.32 ± 1.6 mPa·s. The viscosity ([2]; 345.15 K, x1 = 0.2025) was 1.52 ± 0.03 mPa·s, the viscosity ([2]; 345.15 K, x1 = 0.4036) was 4.81 ± 0.09 mPa·s and the viscosity ([2]; 345.15 K, x1 = 0.5972) was 12.33 ± 0.23 mPa·s. It also gave a viscosity ([2]; 345.15 K, x1 = 0.7955) of 26.47 ± 0.53 mPa·s, a viscosity ([2]; 345.15 K, x1 = 1) of 49.98 ± 1.1 mPa·s and a viscosity ([2]; 350.15 K, x1 = 0.2025) of 1.37 ± 0.03 mPa·s. For the same compound, the viscosity ([2]; 350.15 K, x1 = 0.4036) was 4.25 ± 0.08 mPa·s, the viscosity ([2]; 350.15 K, x1 = 0.5972) was 10.5 ± 0.18 mPa·s and the viscosity ([2]; 350.15 K, x1 = 0.7955) was 21.44 ± 0.4 mPa·s. The viscosity ([2]; 350.15 K, x1 = 1) was 37.4 ± 0.85 mPa·s.

From the NIST ThermoML archive (doi:10.1021/je800439e)
